Read-outs that look alike come from different tables or passages of the source.
Legend:
PC3 cells = assay: PC3 growth inhibition (Cell-titer glo, 72 hours); format: cell-based; details: Homo sapiens, PC-3, PC3 cells, 72 hours, Cell-titer glo, read-out: Percent Inhibition (PC3 growth inhibition); for inhibition at 1 µM: compound concentration 1 μM; for inhibition at 1.667 µM: compound concentration 1.667 μM
Summary of the method: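 PC3 cells in RPMI1640 seeded overnight at 37 °C, 5% CO2, then exposed to compound diluted in AIM serum-free medium for 72 h. Viability by CellTiter-Glo luminescence vs DMSO controls; single-concentration % remaining viability (1 μM or 1.667 μM), or GI50/LD50 from curves.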

hNAMPT protein = hNAMPT protein (Homo sapiens (Human), UniProt P43490); assay: NAMPT enzyme assay (TR-FRET/HTRF, BodiPY ligand, anti 6His-Tb); format: binding; details: for IC50: read-out: IC50; for inhibition at 1 µM: read-out: Percent Inhibition
Summary of the method: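 TR-FRET binding assay in which His-tagged human NAMPT with anti-6His-Tb is displaced by compound from a BodiPY ligand, incubated 1 h at rt in the dark. Excitation was at 320 nm, with the 520/486 nm emission ratio read. IC50 was fitted from inhibition relative to DMSO controls.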

[1] = NAMPT inhibition at compound concentration 1 μM
[2] = NAMPT inhibition, IC50 range class

hNAMPT protein, sequence (P43490 whole entry): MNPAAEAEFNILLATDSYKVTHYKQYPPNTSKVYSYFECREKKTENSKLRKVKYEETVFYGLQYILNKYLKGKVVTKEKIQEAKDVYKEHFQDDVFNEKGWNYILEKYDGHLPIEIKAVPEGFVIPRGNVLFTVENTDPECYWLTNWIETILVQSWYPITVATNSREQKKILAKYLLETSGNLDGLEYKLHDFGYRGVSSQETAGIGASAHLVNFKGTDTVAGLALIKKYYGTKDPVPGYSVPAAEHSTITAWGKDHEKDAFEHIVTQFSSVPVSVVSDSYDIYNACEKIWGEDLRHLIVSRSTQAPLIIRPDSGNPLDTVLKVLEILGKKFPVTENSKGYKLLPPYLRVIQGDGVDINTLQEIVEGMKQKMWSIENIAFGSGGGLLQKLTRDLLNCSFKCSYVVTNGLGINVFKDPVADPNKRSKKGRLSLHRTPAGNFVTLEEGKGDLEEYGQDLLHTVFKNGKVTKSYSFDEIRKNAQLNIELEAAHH

Row | Structure (SMILES) | inhibition at 1 µM (PC3 cells) | IC50 (hNAMPT protein; NAMPT IC50 range class) | inhibition at 1 µM (hNAMPT protein; compound concentration 1 μM) | inhibition at 1.667 µM (PC3 cells) | inhibition at 1 µM (hNAMPT protein; [1]) | IC50 (hNAMPT protein; [2]) | inhibition at 1 µM (hNAMPT protein)
1 | O=C(NCCc1cn2c(n1)SCC2)c1ccc2nc(-c3ccc(F)cc3)c(-c3ccc(F)cc3)nc2c1 [Compound I-238, N-[2-(2,3-dihydroimidazo[2,1-b][1,3]thiazol-6-yl)ethyl]-2,3-bis(4-fluorophenyl)quinoxaline-6-carboxamide] | 96% | 2000 to 10000 nM | 19% | – | – | – | –
2 | O=C(NCCCn1ccnc1)c1ccc2nc(N3CCCCCC3)c(-c3ccccc3)nc2c1 [Compound I-262, 2-(azepan-1-yl)-N-[3-(1H-imidazol-1-yl)propyl]-3-phenylquinoxaline-6-carboxamide] | -7% | < 100 nM | 91% | – | – | – | –
3 | COc1cccc(-c2nc3cc(C(=O)NCCc4cccnc4)ccc3nc2N2CCC(O)CC2)c1 [Compound I-67, 2-(4-hydroxypiperidin-1-yl)-3-(3-methoxyphenyl)-N-[2-(pyridin-3-yl)ethyl]quinoxaline-6-carboxamide] | – | < 100 nM | 96% | 2% | – | – | –
4 | Cc1cc(C)cc(-c2nc3cc(C(=O)NCCCc4ncc[nH]4)ccc3nc2-c2ccc(F)cc2)c1 [Compound I-335, 3-(3,5-dimethylphenyl)-2-(4-fluorophenyl)-N-[3-(1H-imidazol-2-yl)propyl]quinoxaline-6-carboxamide] | – | 100 to 500 nM | 85% | 2% | – | – | –
5 | O=C(NCCCn1ccnc1)c1ccc2nc(-c3ccccc3)c(NCc3ccccc3)nc2c1 [Compound I-191, 3-(benzylamino)-N-[3-(1H-imidazol-1-yl)propyl]-2-phenylquinoxaline-6-carboxamide] | 24% | 2000 to 10000 nM | 16% | – | – | – | –
6 | CN(CCn1ccnc1)C(=O)c1ccc2nc(-c3ccc(F)cc3)c(-c3ccc(F)cc3)nc2c1 [Compound I-279, 2,3-bis(4-fluorophenyl)-N-[2-(1H-imidazol-1-yl)ethyl]-N-methylquinoxaline-6-carboxamide] | 89% | 2000 to 10000 nM | 13% | – | – | – | –
7 | N#Cc1cc(-c2nc3cc(C(=O)NCCCc4ncc[nH]4)ccc3nc2-c2ccc(F)cc2)ccc1Cl [Compound I-377, 3-(4-chloro-3-cyanophenyl)-2-(4-fluorophenyl)-N-[3-(1H-imidazol-2-yl)propyl]quinoxaline-6-carboxamide] | – | 100 to 500 nM | 85% | 2% | – | – | –
8 | N#Cc1cc(-c2nc3cc(C(=O)NCCCc4ncc[nH]4)ccc3nc2-c2ccc(F)cc2)ccc1F [Compound I-388, 3-(3-cyano-4-fluorophenyl)-2-(4-fluorophenyl)-N-[3-(1H-imidazol-2-yl)propyl]quinoxaline-6-carboxamide] | – | 100 to 500 nM | 81% | 3% | – | – | –
9 | O=C(NCCCn1ccnc1)c1ccc2nc(-c3cn[nH]c3)c(-c3ccccc3)nc2c1 [Compound I-49, N-[3-(1H-imidazol-1-yl)propyl]-3-phenyl-2-(1H-pyrazol-4-yl)quinoxaline-6-carboxamide] | 8% | 500 to 1000 nM | 56% | – | – | – | –
10 | CN1CC=C(c2nc3ccc(C(=O)NCCCn4ccnc4)cc3nc2-c2ccccc2)CC1 [Compound I-165, N-[3-(1H-imidazol-1-yl)propyl]-2-(1-methyl-1,2,3,6-tetrahydropyridin-4-yl)-3-phenylquinoxaline-6-carboxamide] | -7% | 100 to 500 nM | 78% | – | – | – | –
11 | Cc1nc(C)c(-c2nc3ccc(C(=O)NCCCn4ccnc4)cc3nc2-c2ccccc2)s1 [Compound I-24, 2-(2,4-dimethyl-1,3-thiazol-5-yl)-N-[3-(1H-imidazol-1-yl)propyl]-3-phenylquinoxaline-6-carboxamide] | -8% | 100 to 500 nM | 88% | – | – | – | –
12 | O=C(NCCCc1ncc[nH]1)c1ccc2nc(-c3ccccc3)c(-c3cccs3)nc2c1 [Compound I-477, N-[3-(1H-imidazol-2-yl)propyl]-2-phenyl-3-(2-thienyl)quinoxaline-6-carboxamide] | – | – | – | 2% | > 99% | < 100 nM | –
13 | CN1CC=C(c2nc3cc(C(=O)NCCCn4ccnc4)ccc3nc2-c2ccccc2)CC1 [Compound I-3, N-[3-(1H-imidazol-1-yl)propyl]-3-(1-methyl-1,2,3,6-tetrahydropyridin-4-yl)-2-phenylquinoxaline-6-carboxamide] | 39% | 2000 to 10000 nM | 9% | – | – | – | –
14 | CC(C)Oc1nc2ccc(C(=O)NCCCc3ncc[nH]3)cc2nc1-c1ccc(F)c(Cl)c1 [Compound I-435, 3-(3-chloro-4-fluorophenyl)-N-[3-(1H-imidazol-2-yl)propyl]-2-isopropoxyquinoxaline-6-carboxamide] | – | – | – | 0% | 93% | < 100 nM | –
15 | O=C(NCCCn1ccnc1)c1ccc2nc(-c3ccccc3)c(-c3ccncc3)nc2c1 [Compound I-251, N-[3-(1H-imidazol-1-yl)propyl]-2-phenyl-3-(pyridin-4-yl)quinoxaline-6-carboxamide] | 1% | 100 to 500 nM | 65% | – | – | – | –
16 | Cc1ccc(-c2nc3cc(C(=O)NCCCc4ncc[nH]4)ccc3nc2-c2ccc(F)cc2)cc1F [Compound I-311, 3-(3-fluoro-4-methylphenyl)-2-(4-fluorophenyl)-N-[3-(1H-imidazol-2-yl)propyl]quinoxaline-6-carboxamide] | – | 100 to 500 nM | 76% | 2% | – | – | –
17 | CS(=O)(=O)N1CCN(c2nc3ccc(C(=O)NCCCn4ccnc4)cc3nc2-c2ccccc2)CC1 [Compound I-125, N-[3-(1H-imidazol-1-yl)propyl]-2-[4-(methylsulfonyl)piperazin-1-yl]-3-phenylquinoxaline-6-carboxamide] | -7% | 100 to 500 nM | 73% | – | – | – | –
18 | Nc1ccc(CCCNC(=O)c2ccc3nc(N4CCCCC4)c(-c4ccc(F)cc4)nc3c2)cn1 [Compound I-436, N-[3-(6-aminopyridin-3-yl)propyl]-3-(4-fluorophenyl)-2-(piperidin-1-yl)quinoxaline-6-carboxamide] | – | – | – | 2% | 83% | 100 to 500 nM | –
19 | O=C(NCc1ccc2[nH]ncc2c1)c1ccc2nc(N3CCCCC3)c(-c3ccc(F)cc3)nc2c1 [Compound I-220, 3-(4-Fluorophenyl)-N-(1H-indazol-5-ylmethyl)-2-(piperidin-1-yl)quinoxaline-6-carboxamide] | – | 100 to 500 nM | – | 4% | – | – | 68%
20 | COc1ccccc1-c1nc2ccc(C(=O)NCCCn3ccnc3)cc2nc1-c1ccccc1 [Compound I-13, N-[3-(1H-imidazol-1-yl)propyl]-2-(2-methoxyphenyl)-3-phenylquinoxaline-6-carboxamide] | -6% | 100 to 500 nM | 69% | – | – | – | –
21 | COc1cccc(-c2nc3cc(C(=O)NCCc4cccnc4)ccc3nc2N2CCCCC2)c1 [Compound I-196, 3-(3-methoxyphenyl)-2-(piperidin-1-yl)-N-[2-(pyridin-3-yl)ethyl]quinoxaline-6-carboxamide] | – | < 100 nM | 98% | 2% | – | – | –
22 | O=C(NCCCc1ncc[nH]1)c1ccc2nc(O[C@@H]3CCOC3)c(-c3ccc(Cl)cc3)nc2c1 [Compound I-352, 3-(4-chlorophenyl)-N-[3-(1H-imidazol-2-yl)propyl]-2-[(3R)-tetrahydrofuran-3-yloxy]quinoxaline-6-carboxamide] | – | < 100 nM | 99% | 2% | – | – | –
23 | CC(C)(C)OC(=O)NCc1ccc(-c2nc3cc(C(=O)NCCCn4ccnc4)ccc3nc2-c2ccccc2)cc1 [Compound I-63, tert-Butyl [4-(7-{[3-(1H-imidazol-1-yl)propyl]carbamoyl}-3-phenylquinoxalin-2-yl)benzyl]carbamate] | 25% | 2000 to 10000 nM | – | – | – | – | 17%
24 | CC(C)Oc1nc2ccc(C(=O)NCCCc3nnc[nH]3)cc2nc1-c1ccc(F)cc1 [Compound I-310, 3-(4-fluorophenyl)-2-isopropoxy-N-[3-(4H-1,2,4-triazol-3-yl)propyl]quinoxaline-6-carboxamide] | – | 500 to 1000 nM | 62% | 4% | – | – | –
25 | O=C(NCCCc1ncc[nH]1)c1ccc2nc(N3CCC(N4CCOCC4)CC3)c(-c3ccc(F)cc3)nc2c1 [Compound I-23, 3-(4-fluorophenyl)-N-[3-(1H-imidazol-2-yl)propyl]-2-[4-(morpholin-4-yl)piperidin-1-yl]quinoxaline-6-carboxamide] | – | < 100 nM | 100% | 2% | – | – | –
26 | O=C(NCCCn1ccnc1)c1ccc2nc(-c3ccccc3)c(N3CCCCCC3)nc2c1 [Compound I-265, 3-(azepan-1-yl)-N-[3-(1H-imidazol-1-yl)propyl]-2-phenylquinoxaline-6-carboxamide] | 11% | 2000 to 10000 nM | 17% | – | – | – | –
27 | CC(C)Oc1nc2ccc(C(=O)NCCCc3ccc(N)nc3)cc2nc1-c1ccc(F)cc1 [Compound I-359, N-[3-(6-aminopyridin-3-yl)propyl]-3-(4-fluorophenyl)-2-isopropoxyquinoxaline-6-carboxamide] | – | 500 to 1000 nM | 46% | 3% | – | – | –

Reference: patent US10144742B2 (Millennium Pharmaceuticals, Inc., priority 2014, dated 2018)
